{"source": "patent USRE39192E1", "about": "“Supplemented and unsupplemented tissue sealants, methods of their production and use” (American National Red Cross, priority 1990, dated 2006)", "key": {"NIH 3T3 fibroblasts": {"system": "NIH 3T3 fibroblasts", "assay": "Cell chemotaxis assay (modified Boyden's chamber), NIH 3T3 fibroblasts", "assay_type": "cell-based", "description": "(§1) NIH/3T3 fibroblasts at passage 126 were purchased from the American Type Culture Collection, Rockville, Md. Cultures from passages 129-133 were used in the chemotaxis assays. Cultures were propagated in DMEM supplemented with 10%. Calf serum and approximately 1% antibiotic antimycotic solution. Human dermal fibroblasts (HDFs) were purchased from Clonetics, Inc. (San Diego, Calif.) at passage 2. Cultures from passages 3-5 were used in the chemotaxis assays. Cultures were cultivated in DMEM supplemented with 20% FBS (Hyclone Laboratories, Inc., Logan, Utah) and approximately 1% antibiotic antimycotic solution (Gibco, Grand Island, N.Y.).\nThe procedure used to determine cellular chemotaxis was a combination of two known methodologies. A modification of Boyden's chamber was used as follows: Millicell-PCF (Millipore, Inc., Bedford, Mass.) (12.0 μm) 12.0 mm diameter inserts were placed in individual wells of 24 well plates to create the upper and lower chemotaxis chambers. Chemotaxis results were arrived at by performing checkerboard analysis for every combination of cells and growth factors. […] Briefly, cultures were trypsanized and placed in DMEM+0.1% Bovine Serum Albumin (BSA) (Sigma Chemical Co., St. Louis, Mo.) for approximately one hour at 37° C. in a 5% CO2 humidified chamber. Tow to 2.5×10^5 cells in 50 μl were added per insert to the upper chamber of the setup of the 24 well plates. Treatments were added as mentioned above. The assay was kept at 37° C. in a 5% CO2 humidified chamber for 4 hours. All combinations tested were performed in triplicate. At the end of 4 hours, the plates were removed from the incubator and the filters were stained following the protocol for staining included with the Millicell-PCT inserts. Briefly, the fluid surrounding the inside and outside of the Millicell-PCF inserts were removed. Three percent glutaraldehyde (Sigma Chemical Co., St. Louis, Mo.) was added to the outside and inside of the inserts for approximately 20 minutes. Following removal of the 3.0% glutaraldehyde, 0.5% Triton X-100 (E.M. Science, Cherry Hill, N.J.) was added for 5-7 minutes. On removal of the 0.5% Triton X-100, Fisher's Hematoxylin Solution Gill's Formulation (Fisher Scientific, Newark, Del.) No.1 was added for about 10 minutes. This solution was washed off in running distilled water for about 5 minutes. Using a cotton swab the upper side of the filter was swabbed to remove cells which had not migrated. Filters, were mounted lower side facing up on slides in Crystal Mount™ (Biomedia, Inc., Foster City, Calif.) solution and 10 random field were counted per slide both visually at 400× and at 200×using an Image Analyzing System to automate the enumeration of the cells on the underside of the filters.\n(§2) As required, checkerboard analysis was carried out to determine random migration, and positive and negative chemotaxis. Growth factors were added to the upper and/or lower chambers to observe whether cells migrated towards the GF alone (chemotaxis), whether migration was random irrespective of whether the growth factor was added to the upper or lower well (chemokinesis) or whether cell migration was against the chemotactic gradient (negative chemotaxis)."}, "[1]": {"system": "human dermal fibroblasts (HDFs)", "assay": "Cell chemotaxis assay (modified Boyden's chamber), human dermal fibroblasts", "assay_type": "cell-based", "description": "as §1\nThe procedure used to determine cellular chemotaxis was a combination of two known methodologies. A modification of Boyden's chamber was used as follows: Millicell-PCF (Millipore, Inc., Bedford, Mass.) (12.0 μm) 12.0 mm diameter inserts were placed in individual wells of 24 well plates to create the upper and lower chemotaxis chambers. Chemotaxis results were arrived at by performing checkerboard analysis for every combination of cells and growth factors. Concentrations ranging from 0.1, 1, 10, 100 ng/ml with/without added heparin (10 U/ml) were used for FGF-1, FGF-2 (no heparin) and FGF-4 with all the cell types mentioned in the materials section. Briefly, cultures were trypsanized and placed in DMEM+0.1% Bovine Serum Albumin (BSA) (Sigma Chemical Co., St. Louis, Mo.) for approximately one hour at 37° C. in a 5% CO2 humidified chamber. Tow to 2.5×10^5 cells in 50 μl were added per insert to the upper chamber of the setup of the 24 well plates. Treatments were added as mentioned above. The assay was kept at 37° C. in a 5% CO2 humidified chamber for 4 hours. All combinations tested were performed in triplicate. At the end of 4 hours, the plates were removed from the incubator and the filters were stained following the protocol for staining included with the Millicell-PCT inserts. Briefly, the fluid surrounding the inside and outside of the Millicell-PCF inserts were removed. Three percent glutaraldehyde (Sigma Chemical Co., St. Louis, Mo.) was added to the outside and inside of the inserts for approximately 20 minutes. Following removal of the 3.0% glutaraldehyde, 0.5% Triton X-100 (E.M. Science, Cherry Hill, N.J.) was added for 5-7 minutes. On removal of the 0.5% Triton X-100, Fisher's Hematoxylin Solution Gill's Formulation (Fisher Scientific, Newark, Del.) No.1 was added for about 10 minutes. This solution was washed off in running distilled water for about 5 minutes. Using a cotton swab the upper side of the filter was swabbed to remove cells which had not migrated. Filters, were mounted lower side facing up on slides in Crystal Mount™ (Biomedia, Inc., Foster City, Calif.) solution and 10 random field were counted per slide both visually at 400× and at 200×using an Image Analyzing System to automate the enumeration of the cells on the underside of the filters.\nas §2"}}, "data": [{"substance": "HBGF-1: heparin binding growth factor-1, also known as ECGF and FGF-1; recombinant HBGF-1β expressed in E. coli", "values": [{"measurement": "checkerboard analysis", "setting": "NIH 3T3 fibroblasts", "result": "chemotactic"}, {"measurement": "concentration of maximum stimulation of migration", "setting": "NIH 3T3 fibroblasts; FGF-1 in the presence of 10 U/ml heparin", "result": 10, "unit": "ng/mL"}, {"measurement": "migrated cells (checkerboard analysis)", "setting": "NIH 3T3 fibroblasts; lower 0 ng/ml, upper 1 ng/ml", "result": "53.93 +/− 4.152"}, {"measurement": "migrated cells (checkerboard analysis)", "setting": "NIH 3T3 fibroblasts; lower 0 ng/ml, upper 5 ng/ml", "result": "27.27 +/− 3.873"}, {"measurement": "migrated cells (checkerboard analysis)", "setting": "NIH 3T3 fibroblasts; lower 0 ng/ml, upper 10 ng/ml", "result": "25.96 +/− 4.151"}, {"measurement": "migrated cells (checkerboard analysis)", "setting": "NIH 3T3 fibroblasts; lower 1 ng/ml, upper 0 ng/ml", "result": "59.46 +/− 6.89"}, {"measurement": "migrated cells (checkerboard analysis)", "setting": "NIH 3T3 fibroblasts; lower 1 ng/ml, upper 1 ng/ml", "result": "36.9 +/− 5.728"}, {"measurement": "migrated cells (checkerboard analysis)", "setting": "NIH 3T3 fibroblasts; lower 1 ng/ml, upper 5 ng/ml", "result": "22.1 +/− 9.232"}, {"measurement": "migrated cells (checkerboard analysis)", "setting": "NIH 3T3 fibroblasts; lower 1 ng/ml, upper 10 ng/ml", "result": "35.86 +/− 2.074"}, {"measurement": "migrated cells (checkerboard analysis)", "setting": "NIH 3T3 fibroblasts; lower 5 ng/ml, upper 0 ng/ml", "result": "64.867 +/− 1.75"}, {"measurement": "migrated cells (checkerboard analysis)", "setting": "NIH 3T3 fibroblasts; lower 5 ng/ml, upper 1 ng/ml", "result": "41.44 +/− 1.866"}, {"measurement": "migrated cells (checkerboard analysis)", "setting": "NIH 3T3 fibroblasts; lower 5 ng/ml, upper 5 ng/ml", "result": "24.84 +/− 4.337"}, {"measurement": "migrated cells (checkerboard analysis)", "setting": "NIH 3T3 fibroblasts; lower 5 ng/ml, upper 10 ng/ml", "result": "41.6 +/− 6.717"}, {"measurement": "migrated cells (checkerboard analysis)", "setting": "NIH 3T3 fibroblasts; lower 10 ng/ml, upper 0 ng/ml", "result": "70.83 +/− 2.752"}, {"measurement": "migrated cells (checkerboard analysis)", "setting": "NIH 3T3 fibroblasts; lower 10 ng/ml, upper 1 ng/ml", "result": "39.73 +/− 2.428"}, {"measurement": "migrated cells (checkerboard analysis)", "setting": "NIH 3T3 fibroblasts; lower 10 ng/ml, upper 5 ng/ml", "result": "39.73 +/− 2.428"}, {"measurement": "migrated cells (checkerboard analysis)", "setting": "NIH 3T3 fibroblasts; lower 10 ng/ml, upper 10 ng/ml", "result": "41.83 +/− 6.879"}, {"measurement": "checkerboard analysis", "setting": "[1]", "result": "chemotactic"}, {"measurement": "maximal migratory response over negative control", "setting": "[1]", "result": 18, "unit": "fold"}, {"measurement": "migrated cells (checkerboard analysis)", "setting": "[1]; lower 0 ng/ml, upper 0.1 ng/ml", "result": "48. +/− 1.965"}, {"measurement": "migrated cells (checkerboard analysis)", "setting": "[1]; lower 0 ng/ml, upper 1 ng/ml", "result": "1.3 +/− 0.351"}, {"measurement": "migrated cells (checkerboard analysis)", "setting": "[1]; lower 0 ng/ml, upper 10 ng/ml", "result": "4.6 +/− 2.424"}, {"measurement": "migrated cells (checkerboard analysis)", "setting": "[1]; lower 0 ng/ml, upper 100 ng/ml", "result": "2.4 +/− 2.59"}, {"measurement": "migrated cells (checkerboard analysis)", "setting": "[1]; lower 0.1 ng/ml, upper 0 ng/ml", "result": "66.46 +/− 3.304"}, {"measurement": "migrated cells (checkerboard analysis)", "setting": "[1]; lower 0.1 ng/ml, upper 0.1 ng/ml", "result": "3.5 +/− 1.550"}, {"measurement": "migrated cells (checkerboard analysis)", "setting": "[1]; lower 0.1 ng/ml, upper 1 ng/ml", "result": "22.0 +/− 6.621"}, {"measurement": "migrated cells (checkerboard analysis)", "setting": "[1]; lower 0.1 ng/ml, upper 10 ng/ml", "result": "9.7 +/− 7.758"}, {"measurement": "migrated cells (checkerboard analysis)", "setting": "[1]; lower 0.1 ng/ml, upper 100 ng/ml", "result": "11.6 +/− 8.609"}, {"measurement": "migrated cells (checkerboard analysis)", "setting": "[1]; lower 1 ng/ml, upper 0 ng/ml", "result": "90.0 +/− 5.776"}, {"measurement": "migrated cells (checkerboard analysis)", "setting": "[1]; lower 1 ng/ml, upper 0.1 ng/ml", "result": "27.7 +/− 8.10"}, {"measurement": "migrated cells (checkerboard analysis)", "setting": "[1]; lower 1 ng/ml, upper 1 ng/ml", "result": "52.6 +/− 2.775"}, {"measurement": "migrated cells (checkerboard analysis)", "setting": "[1]; lower 1 ng/ml, upper 10 ng/ml", "result": "9.7 +/− 3.553"}, {"measurement": "migrated cells (checkerboard analysis)", "setting": "[1]; lower 1 ng/ml, upper 100 ng/ml", "result": "1.83 +/− 2.2"}, {"measurement": "migrated cells (checkerboard analysis)", "setting": "[1]; lower 10 ng/ml, upper 0 ng/ml", "result": "92.4 +/− 29.307"}, {"measurement": "migrated cells (checkerboard analysis)", "setting": "[1]; lower 10 ng/ml, upper 0.1 ng/ml", "result": "55.1 +/− 7.151"}, {"measurement": "migrated cells (checkerboard analysis)", "setting": "[1]; lower 10 ng/ml, upper 1 ng/ml", "result": "44.2 +/− 11.844"}, {"measurement": "migrated cells (checkerboard analysis)", "setting": "[1]; lower 10 ng/ml, upper 10 ng/ml", "result": "16.2 +/− 4.781"}, {"measurement": "migrated cells (checkerboard analysis)", "setting": "[1]; lower 10 ng/ml, upper 100 ng/ml", "result": "21.2 +/− 6.42"}, {"measurement": "migrated cells (checkerboard analysis)", "setting": "[1]; lower 100 ng/ml, upper 0 ng/ml", "result": "65.4 +/− 22.055"}, {"measurement": "migrated cells (checkerboard analysis)", "setting": "[1]; lower 100 ng/ml, upper 0.1 ng/ml", "result": "53.7 +/− 7.3118"}, {"measurement": "migrated cells (checkerboard analysis)", "setting": "[1]; lower 100 ng/ml, upper 1 ng/ml", "result": "54.9 +/− 18.599"}, {"measurement": "migrated cells (checkerboard analysis)", "setting": "[1]; lower 100 ng/ml, upper 10 ng/ml", "result": "49.166 +/− 9.152"}, {"measurement": "migrated cells (checkerboard analysis)", "setting": "[1]; lower 100 ng/ml, upper 100 ng/ml", "result": "4.66 +/− 3.3"}]}]}
